Assays:
Carbonic anhydrase 9 = Carbonic anhydrase 9 (Homo sapiens, UniProt Q16790)
Description: Inhibition of human transmembrane carbonic anhydrase 9 by stopped-flow CO2 hydration assay

Carbonic anhydrase 12 = Carbonic anhydrase 12 (Homo sapiens, UniProt O43570)
Description: Inhibition of human transmembrane carbonic anhydrase 12 by stopped-flow CO2 hydration assay

Carbonic anhydrase 1 = Carbonic anhydrase 1 (Homo sapiens, UniProt P00915)
Description: Inhibition of human cytosolic carbonic anhydrase 1 by stopped-flow CO2 hydration assay

Carbonic anhydrase 2 = Carbonic anhydrase 2 (Homo sapiens, UniProt P00918)
Description: Inhibition of human cytosolic carbonic anhydrase 2 by stopped-flow CO2 hydration assay

Sequence of Carbonic anhydrase 1 (P00915 whole entry): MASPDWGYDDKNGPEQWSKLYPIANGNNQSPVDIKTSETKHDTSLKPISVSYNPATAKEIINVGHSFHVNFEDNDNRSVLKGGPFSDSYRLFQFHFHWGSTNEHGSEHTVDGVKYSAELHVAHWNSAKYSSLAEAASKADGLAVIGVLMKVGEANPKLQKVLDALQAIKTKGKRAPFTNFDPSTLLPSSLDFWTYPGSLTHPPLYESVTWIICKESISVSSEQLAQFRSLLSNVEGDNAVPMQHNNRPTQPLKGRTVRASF
Sequence of Carbonic anhydrase 12 (O43570 whole entry): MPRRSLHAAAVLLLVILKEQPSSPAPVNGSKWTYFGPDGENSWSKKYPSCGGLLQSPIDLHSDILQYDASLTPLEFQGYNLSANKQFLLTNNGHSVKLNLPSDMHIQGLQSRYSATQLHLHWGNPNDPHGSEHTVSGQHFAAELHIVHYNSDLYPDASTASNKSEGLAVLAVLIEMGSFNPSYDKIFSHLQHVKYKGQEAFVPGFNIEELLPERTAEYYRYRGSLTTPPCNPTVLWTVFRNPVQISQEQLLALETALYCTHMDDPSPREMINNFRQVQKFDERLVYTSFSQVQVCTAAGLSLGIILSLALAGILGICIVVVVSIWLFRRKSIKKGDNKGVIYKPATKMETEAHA

| Compound | Ki (Carbonic anhydrase 9) [µM] | Ki (Carbonic anhydrase 12) [µM] | Ki (Carbonic anhydrase 1) [µM] | Ki (Carbonic anhydrase 2) [µM] |
| --- | --- | --- | --- | --- |
| NS(=O)(=O)c1ccc(CN2C(=O)c3ccc([N+](=O)[O-])cc3C2=O)cc1 | 8.84 |  |  |  |
| NS(=O)(=O)c1ccc(N2C(=O)c3ccc([N+](=O)[O-])cc3C2=O)cc1 | 8.65 |  |  |  |
| NS(=O)(=O)c1ccccc1N1C(=O)c2ccc([N+](=O)[O-])cc2C1=O | > 10 |  | > 10 | > 10 |
| NS(=O)(=O)c1cccc(N2C(=O)c3ccc([N+](=O)[O-])cc3C2=O)c1 | 10 |  |  |  |
| NS(=O)(=O)c1ccc(CCN2C(=O)c3ccc([N+](=O)[O-])cc3C2=O)cc1 | > 10 |  |  |  |

Stronger by Ki (Carbonic anhydrase 9), values ahead:

| Ki (Carbonic anhydrase 9) [µM] | Ki (Carbonic anhydrase 12) [µM] | Ki (Carbonic anhydrase 1) [µM] | Ki (Carbonic anhydrase 2) [µM] | Compound |
| --- | --- | --- | --- | --- |
| 0.873 |  |  |  | NS(=O)(=O)c1ccc(CN2C(=O)c3cccc([N+](=O)[O-])c3C2=O)cc1 |
| 8.35 |  |  |  | NS(=O)(=O)c1cccc(N2C(=O)c3cccc([N+](=O)[O-])c3C2=O)c1 |
| 7.82 | > 10 | > 10 |  | NS(=O)(=O)c1ccccc1N1C(=O)c2cccc([N+](=O)[O-])c2C1=O |
